The nature of series [1]: Aqueous solubility in fed simulated intestinal fluid at pH 6.5. Format: physicochemical.
Series [2] is described as follows: Aqueous solubility in fasted simulated intestinal fluid at pH 6.5. Format: physicochemical.
A short description of series [3]: Aqueous solubility in simulated gastric fluid at pH 1.6. Format: physicochemical.
A short description of series [4]: Aqueous solubility in water. Format: physicochemical.
The target in series [5] is T1, Hematopoietic prostaglandin D synthase (Homo sapiens, UniProt O60760). Nature of the series: Inhibition of human hematopoietic prostaglandin D2 synthase by fluorescence polarisation assay. (Fluorescence polarisation rises when a labelled molecule tumbles more slowly, as on binding a larger partner.)
T1 sequence (O60760 whole entry): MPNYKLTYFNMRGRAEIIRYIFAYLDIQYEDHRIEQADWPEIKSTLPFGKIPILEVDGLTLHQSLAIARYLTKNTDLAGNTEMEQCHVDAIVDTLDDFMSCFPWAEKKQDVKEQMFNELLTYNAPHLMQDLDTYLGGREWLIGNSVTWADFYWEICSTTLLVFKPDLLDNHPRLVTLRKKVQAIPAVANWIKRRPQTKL
In series [6] the target is T1, Hematopoietic prostaglandin D synthase. The experiment in a line: Inhibition of human hematopoietic prostaglandin D2 synthase by rapid fire mass spectrometry assay.
Series [7] shares this target. The experiment in a line: Inhibition of hematopoietic prostaglandin D2 synthase in IgE and IL-5 primed human LAD2 cells assessed as reduction in PGD2 production by mass spectrometry. The series is classed as cell-based.
Series [8] shares this target. The experiment in a line: Inhibition of human hematopoietic prostaglandin D2 synthase at 100 uM by fluorescence polarisation assay.
Series [9] has the same target. Nature of the series: Inhibition of human hematopoietic prostaglandin D2 synthase at 10 nM by fluorescence polarisation assay.
Another series concerns Rattus norvegicus. The experiment in a line: fCmax in rat at 3 mg/kg, po by LC-MS/MS method. Format: ADME, organism-based. The conditions noted are these: in vivo. The arrangement: dose 3 mg/kg, route oral.
Series [10] in a line: Cmax in rat at 3 mg/kg, po by LC-MS/MS method. Format: ADME, organism-based. Details: dose 3 mg/kg, route oral. The conditions noted are these: in vivo.
The nature of series [11]: Protein binding in rat whole blood at 1 mg/kg, iv or 3 mg/kg, po by LC-MS/MS method. The conditions noted are these: read-out: PB (converted). Format: ADME, organism-based.
Series [12] is described as follows: Volume of distribution at steady state in rat at 1 mg/kg, iv or 3 mg/kg, po by LC-MS/MS method. Format: ADME, organism-based. The conditions noted are these: in vivo, read-out: Vdss.
In another series the test system is Mus musculus. Nature of the series: Reduction in PGD2 level in C57/BL6/J mouse peritoneal lavage supernatants at 30 mg/kg, po measured 40 mins after compound 48/80 injection by enzyme immunoassay pre-treated 30 mins before compound 48/80 injection. Format: functional, organism-based. Details: dose 30 mg/kg.
Series [13] can be described thus: Half life in rat at 1 mg/kg, iv or 3 mg/kg, po by LC-MS/MS method. The series is classed as ADME, organism-based. As to conditions: in vivo.
A short description of series [14]: Blood clearance in rat at 1 mg/kg, iv or 3 mg/kg, po by LC-MS/MS method. The series is classed as ADME, organism-based.
A short description of series [15]: Tmax in rat at 3 mg/kg, po by LC-MS/MS method. Format: ADME, organism-based. The arrangement: dose 3 mg/kg, route oral. The conditions noted are these: in vivo.
The nature of series [16]: Fraction unbound in rat at 1 mg/kg, iv or 3 mg/kg, po by LC-MS/MS method. The conditions noted are these: in vivo. Format: ADME, organism-based.
Series [17] can be described thus: Oral bioavailability in rat at 3 mg/kg by LC-MS/MS method. Format: ADME, organism-based. The conditions noted are these: in vivo.
Series [18] is described as follows: AUC (0 to infinity) in rat at 1 mg/kg, iv or 3 mg/kg, po by LC-MS/MS method. Format: ADME, organism-based. As to conditions: plasma.
The target of series [19] is T1, Hematopoietic prostaglandin D synthase. Nature of the series: Inhibition of human hematopoietic prostaglandin D2 synthase at 30 uM by fluorescence polarisation assay.

In brackets after ≈: the same amount, converted by molar mass. Activity calls are given as the source filed them. No cut-off for these calls is given here.

The text below walks through data of ChEMBL document CHEMBL3132782, “Identification of orally bioavailable small-molecule inhibitors of hematopoietic prostaglandin D2 synthase using X-ray fragment based drug discovery” (Medchemcomm, 2014).

`Cn1nnnc1N1CCC(NC(=O)c2ccc(-c3cccc(F)c3)nc2)CC1`: the solubility is 44 µg/mL (≈ 115 µM) in [1], 31.2 µg/mL (≈ 81.8 µM) in series [2], 48.9 µg/mL (≈ 128 µM) in series [3] and 16.5 µg/mL (≈ 43.3 µM) in series [4].

Regarding `CCNC(=O)N1Cc2cc(-c3c[nH]nc3C3CC3)cnc2C1`, the IC50 in [5] is 40 nM; in series [6] it was 501 nM; in series [7], 4000 nM.

Regarding `Cc1cn(NC(=O)c2cnc(-c3ccccn3)nc2)c2ccc(F)cc12`, the solubility in series [1] is less than 1 µg/mL; in series [2], 4.6 µg/mL (≈ 13.2 µM); in [3] it was 203 µg/mL (≈ 584 µM); in series [4], 4.4 µg/mL (≈ 12.7 µM).

Molecule `c1cncc(-c2cn[nH]c2)c1` displayed an inhibition in [8] of 58%.

`c1nc(NC2CCCC2)c2cn[nH]c2n1`: in series [5], the IC50 is 8500 nM.

In the case of `O=C(NC1CCCC1)N1Cc2cc(-c3c[nH]nc3C3CC3)cnc2C1`, the inhibition in [9] turned out to be 66%. In the series with Rattus norvegicus, the fCmax came out at 30 nM. Also, the solubility is 136 µg/mL (≈ 403 µM) in series [1], 109 µg/mL (≈ 323 µM) in series [2], 885 µg/mL (≈ 2620 µM) in series [3] and 52 µg/mL (≈ 154 µM) in series [4]. The molecule further returned a Cmax in [10] of 196 ng/mL. For the same molecule, the fraction unbound in series [11] and in [16] was 0.055 each time. In series [12], the Vd was determined as 2.8 L/kg. Besides, the IC50 in series [5] is less than 10 nM; in series [6] it was 40 nM; in series [7], 317 nM. Moreover, the result with Mus musculus was Active. The half-life in [13] was 2.2 h. For the same molecule, the clearance in [14] worked out at 33 mL/min/kg. For the same molecule, in series [15], the Tmax was found to be 0.5 h. In addition, the bioavailability in series [17] amounted to 19%. This molecule came in with an AUC(0-inf) in [18] of 295 ng·h/mL.

In turn, `c1nc(NC2CCCC2)c2cc[nH]c2n1` displayed an IC50 in series [5] of 500 nM.

For `Cc1n[nH]cc1-c1ccc(C#N)cc1`, the inhibition in [19] is 52%.

`c1cncc(-c2c[nH]nc2C2CC2)c1` displayed an IC50 in [5] of 17000 nM.

In general, solubility refers to the dissolved amount per volume that the medium holds. Lower therefore signals a poorly soluble substance. For orientation: IC50 means the concentration that inhibits the measured activity by half. One may read the inhibition as the relative decrease from the control value, in per cent. Low values mean little suppression, high ones strong suppression. What is called Cmax is the maximum level reached in the sampled fluid or tissue. As a reminder, the half-life is the time in which the quantity being followed falls by half. Low values mean rapid decline, high ones slow decline. Usually Tmax stands for the time at which the peak concentration occurs. In general, bioavailability refers to dose-corrected exposure relative to a reference, in per cent. High values mean much systemic uptake, low ones little systemic uptake. The term AUC(0-inf) denotes total exposure, with the tail of the curve extrapolated. Lower therefore signals less exposure.
